Assays:
[1] = target: T1, human ether-a-go-go related gene (hERG) channel (Homo sapiens, UniProt Q12809); experiment: hERG test, whole-cell patch-clamp; format: cell-based; settings: HEK293 cell expressing hERG; applied for 10 minutes; concentration not given
T1 construct: expressed in transfected cells; host or cells: HEK293
Text: For the purpose of risk evaluation of QT interval extension of electrocardiogram, the activity on delayed rectification K^+ current (IKr), which plays an important role in a cardiac ventricle repolarization process, was examined using the HEK293 cell that was made to express human ether-a-go-go related gene (hERG) channel.
Using an automatic patch-clamp system (PatchXpress 7000A, Axon Instruments Inc.), by a whole-cell patch-clamp method, after the cell was maintained at a membrane potential of −80 mV, IKr induced upon applying depolarizing stimulation of +50 mV for 2 seconds and further applying repolarizing stimulation of −50 mV for 2 seconds was recorded. After generated electric current became stable, a test substance dissolved at an intended concentration in extracellular fluid (137 mmol/L NaCl, 4 mmol/L KCl, 1.8 mmol/L CaCl2.2H2O, 1 mmol/L MgCl2.6H2O, 10 mmol/L glucose, 10 mmol/L HEPES (4-(2-hydroxyethyl)-1-piperazineethanesulfonic acid), pH=7.4) was applied to the cell for 10 minutes under room temperature condition. From the obtained IKr, the absolute value of the maximum tail current was measured using analysis software (DataXpress ver. 1, Molecular Devices Corporation) and the value of the electric current in a maintained membrane potential as baseline. Moreover, an inhibition ratio for the maximum tail current prior to the application of the test substance was calculated and then compared with a group of media-application (0.1% dimethylsulfoxide solution) to evaluate influence of the test substance on IKr.

CYP2D6 = target: T2, CYP2D6 (Homo sapiens, UniProt P10635); experiment: CYP inhibition test, pooled human liver microsome, CYP2D6; format: in vitro ADME; settings: O-demethylation of dextromethorphan
T2 construct: enzyme: pooled human liver microsome 0.2 mg protein/mL; from tissue; host or cells: pooled human liver microsome
Text: (§1) O-de-ethylation of 7-ethoxyresorufin (CYP1A2), methyl-hydroxylation of tolbutamide (CYP2C9), 4′-hydroxylation of mephenyloin (CYP2C19), O-demethylation of dextromethorphan (CYP2D6), and hydroxylation of terfenadine (CYP3A4), which are typical substrate for metabolic reactions of human main CYP5 molecular species (CYP1A2, 2C9, 2C19, 2D6, and 3A4), were adopted as indexes.
(§2) The reaction conditions are as follows: substrate: 0.5 μmol/L of ethoxyresorufin (CYP1A2), 100 μmol/L of tolbutamide (CYP2C9), […] of S-mephenyloin (CYP2C19), 5 μmol/L of dextromethorphan (CYP2D6), and 1 μmol/L of terfenadine (CYP3A4); reaction time; 15 minutes; reaction temperature: 37° C.; enzyme: pooled human liver microsome 0.2 mg protein/mL; test drug concentration: 1, 5, 10, and 20 μmol/L (4 points).
(§3) In a 96-well plate, as a reaction solution, five kinds of substrates, a human liver microsome, and a test drug were added to 50 mmol/L Hepes buffer solution in the aforementioned ratio. A coenzyme NADPH was added to start a metabolic reaction, which is an index. After reacting at 37° C. for 15 minutes, a solution of methanol/acetonitrile (1/1 (v/v)) was added to quench the reaction. After centrifugation at 3000 rpm for 15 minutes, resorufin (CYP1A2 metabolite) in the supernatant was quantitated with a fluorescence multilabel counter, and hydroxylated tolbutamide (CYP2C9 metabolite), 4′-hydroxylated mephenyloin (CYP2C19 metabolite), […], terfenadine in alcohol form (CYP3A4 metabolite) were quantitated with LC/MS/MS.
(§4) The case wherein only DMSO (a solvent which dissolved a drug) was added to a reaction system was defined as a control (100%). When a test drug solution was added, the remaining activity (%) at each concentration was calculated, and then IC50 was calculated with a concentration and an inhibition ratio by an inverse estimation using a logistic model.

CYP1A2 = target: T3, CYP1A2 (Homo sapiens, UniProt P05177); experiment: CYP inhibition test, pooled human liver microsome, CYP1A2; format: in vitro ADME; settings: O-de-ethylation of 7-ethoxyresorufin
T3 construct: enzyme: pooled human liver microsome 0.2 mg protein/mL; from tissue; host or cells: pooled human liver microsome
T3 sequence (P05177 1-516): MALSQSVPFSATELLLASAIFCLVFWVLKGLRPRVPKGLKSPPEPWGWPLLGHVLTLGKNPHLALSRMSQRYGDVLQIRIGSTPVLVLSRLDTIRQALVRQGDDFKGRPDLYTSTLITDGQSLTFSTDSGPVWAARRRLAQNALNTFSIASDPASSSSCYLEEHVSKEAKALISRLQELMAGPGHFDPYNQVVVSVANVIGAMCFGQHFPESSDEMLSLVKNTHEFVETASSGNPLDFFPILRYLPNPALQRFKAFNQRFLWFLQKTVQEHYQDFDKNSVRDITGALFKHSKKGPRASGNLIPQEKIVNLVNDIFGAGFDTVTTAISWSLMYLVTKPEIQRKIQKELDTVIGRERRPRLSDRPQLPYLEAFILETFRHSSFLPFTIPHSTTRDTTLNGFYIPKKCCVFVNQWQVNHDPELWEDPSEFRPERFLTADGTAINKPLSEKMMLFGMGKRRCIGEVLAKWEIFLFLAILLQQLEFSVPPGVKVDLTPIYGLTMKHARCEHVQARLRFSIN
Text: as §1, §2, §3, §4

Solubility test = format: physicochemical; settings: kinetic from dmso stock; artificial intestinal juice pH 6.8, 1% DMSO, 25° C. for 16 hours
How it was run: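 Kinetic solubility with 1% DMSO: compound from 10 mmol/L DMSO stock spiked into pH 6.8 phosphate artificial intestinal juice, held 16 h at 25 °C, then suction-filtered. Filtrate diluted twofold in methanol/water (1/1) and quantified by HPLC or LC/MS/MS via absolute calibration.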

T1 sequence (Q12809 whole entry): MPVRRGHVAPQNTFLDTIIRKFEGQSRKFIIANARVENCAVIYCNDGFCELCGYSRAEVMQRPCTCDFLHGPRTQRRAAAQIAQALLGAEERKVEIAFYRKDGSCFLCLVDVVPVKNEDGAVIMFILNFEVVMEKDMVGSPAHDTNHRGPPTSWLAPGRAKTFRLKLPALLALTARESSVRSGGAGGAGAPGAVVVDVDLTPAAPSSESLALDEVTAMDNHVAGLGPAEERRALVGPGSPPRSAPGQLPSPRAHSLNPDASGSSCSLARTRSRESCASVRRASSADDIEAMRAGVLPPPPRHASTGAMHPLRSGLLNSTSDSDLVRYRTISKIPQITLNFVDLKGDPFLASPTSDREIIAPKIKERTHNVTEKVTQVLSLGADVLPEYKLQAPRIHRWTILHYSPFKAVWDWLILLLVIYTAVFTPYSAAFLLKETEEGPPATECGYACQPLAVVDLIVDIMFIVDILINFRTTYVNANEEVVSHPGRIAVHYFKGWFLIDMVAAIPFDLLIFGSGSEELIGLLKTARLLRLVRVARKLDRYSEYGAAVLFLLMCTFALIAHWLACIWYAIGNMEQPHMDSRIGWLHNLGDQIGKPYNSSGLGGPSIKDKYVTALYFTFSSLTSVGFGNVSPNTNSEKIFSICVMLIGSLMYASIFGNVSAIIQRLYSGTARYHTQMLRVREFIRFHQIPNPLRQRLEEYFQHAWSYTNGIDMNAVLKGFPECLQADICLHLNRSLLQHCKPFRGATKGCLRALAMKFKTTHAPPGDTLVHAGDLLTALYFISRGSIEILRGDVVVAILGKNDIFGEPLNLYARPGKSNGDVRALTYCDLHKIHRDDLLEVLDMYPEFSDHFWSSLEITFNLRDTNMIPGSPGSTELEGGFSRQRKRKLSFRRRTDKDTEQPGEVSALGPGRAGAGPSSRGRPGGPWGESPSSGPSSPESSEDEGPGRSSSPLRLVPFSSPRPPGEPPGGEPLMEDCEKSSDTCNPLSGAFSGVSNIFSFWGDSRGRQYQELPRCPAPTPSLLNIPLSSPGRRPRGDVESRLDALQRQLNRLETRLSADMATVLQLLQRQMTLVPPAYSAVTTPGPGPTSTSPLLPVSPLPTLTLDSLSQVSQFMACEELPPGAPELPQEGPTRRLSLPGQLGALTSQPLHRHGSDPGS
T2 sequence (P10635 whole entry): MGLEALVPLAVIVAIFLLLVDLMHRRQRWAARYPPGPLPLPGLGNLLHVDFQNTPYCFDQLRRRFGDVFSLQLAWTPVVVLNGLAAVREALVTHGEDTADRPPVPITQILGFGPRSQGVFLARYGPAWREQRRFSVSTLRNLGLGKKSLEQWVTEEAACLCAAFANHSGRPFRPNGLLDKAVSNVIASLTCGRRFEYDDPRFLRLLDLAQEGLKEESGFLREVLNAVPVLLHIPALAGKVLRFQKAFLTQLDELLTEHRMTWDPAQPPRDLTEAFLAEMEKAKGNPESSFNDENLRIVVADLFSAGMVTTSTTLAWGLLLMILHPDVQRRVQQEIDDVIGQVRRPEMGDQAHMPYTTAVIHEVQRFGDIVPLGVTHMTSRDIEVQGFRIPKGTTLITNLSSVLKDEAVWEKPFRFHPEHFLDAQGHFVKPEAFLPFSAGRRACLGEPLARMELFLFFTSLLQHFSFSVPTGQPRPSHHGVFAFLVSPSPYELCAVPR

| IC50 (CYP2D6) [µM] | IC50 (CYP1A2) [µM] | solubility at 16 h (Solubility test) [µM] | Compound | inhibition ratio for the maximum tail current (IKr) [1] [%] |
| --- | --- | --- | --- | --- |
| > 20 | > 20 | – | COc1cc(N2CCc3nc(NC(=O)NCc4cc(=O)[nH]o4)sc3C2)nc(OC)n1 [Compound I-279] | 5 |
| > 20 | > 20 | > 50 | CN1CCc2cc(N3CCn4nc(NC(=O)c5cccnc5)cc43)ccc2C1=O [Compound I-347] | 6 |
| > 20 | > 20 | > 50 | COc1cc(N2CCc3nc(NC(=O)NCC(=O)O)sc3C2)nc(OC)n1 [Compound I-208] | 2.7 |

More lines, now with the values behind:

| Compound | IC50 (CYP2D6) [µM] | IC50 (CYP1A2) [µM] | solubility at 16 h (Solubility test) [µM] | inhibition ratio for the maximum tail current (IKr) [1] [%] |
| --- | --- | --- | --- | --- |
| CNC(=O)Nc1cc2n(n1)CCN2c1ccc(S(C)(=O)=O)cc1 [Compound I-89] | > 20 | > 20 | – | < 0.5 |
| CNC(=O)Nc1nc2c(s1)CN(c1cc(Cl)nc(N)n1)CC2 [Compound I-118] | > 20 | > 20 | > 50 | 8.4 |
| CNC(=O)Nc1cc2n(n1)CCN2c1cc(C(=O)N2CCOCC2)cc(-c2ccc(N)nc2)c1 [Compound I-200] | > 20 | > 20 | > 50 | 7.3 |
| CNC(=O)Nc1nc2c(s1)CN(c1ccnc(OC)n1)CC2 [Compound I-142] | > 20 | > 20 | > 50 | – |
| CN1CCc2cc(N3CCn4nc(NC(=O)c5ccco5)cc43)ccc2C1=O [Compound I-358] | > 20 | > 20 | > 50 | – |

Reference: patent publication US20110230472A1, “RING-FUSED AZOLE DERIVATIVE HAVING PI3K-INHIBITING ACTIVITY” (Shionogi & Co., Ltd., priority 2008, published 2011)
